The values below come from patent US9056876B2, “Substituted 1H-pyrazolo[3′,4′,4,5]thieno[2,3-b]pyridin-3-amine analogs as positive allosteric modulators of the muscarinic acetylcholine receptor M4” (VANDERBILT UNIVERSITY, priority 2011, dated 2015).

This test concerns the target T1, mAChR M4 (UniProt P08173).
T1 construct: hM1 and hM4 cDNAs were purchased from Missouri S&T cDNA Resource
T1 sequence (P08173 1-479): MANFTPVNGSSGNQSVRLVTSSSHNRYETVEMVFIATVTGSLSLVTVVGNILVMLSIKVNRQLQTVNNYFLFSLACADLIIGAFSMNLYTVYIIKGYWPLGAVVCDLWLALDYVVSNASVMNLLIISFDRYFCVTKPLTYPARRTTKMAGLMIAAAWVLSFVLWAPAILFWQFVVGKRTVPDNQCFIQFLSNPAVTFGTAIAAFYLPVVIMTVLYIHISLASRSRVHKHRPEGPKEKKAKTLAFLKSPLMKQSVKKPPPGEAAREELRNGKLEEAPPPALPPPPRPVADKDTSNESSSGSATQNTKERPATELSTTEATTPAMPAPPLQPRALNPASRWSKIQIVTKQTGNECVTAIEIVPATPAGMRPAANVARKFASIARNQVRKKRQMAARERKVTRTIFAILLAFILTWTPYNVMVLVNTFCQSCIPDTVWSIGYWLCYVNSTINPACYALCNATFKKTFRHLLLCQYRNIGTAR
The test is described as follows: mAChR M4 cell-based functional assay (calcium mobilization, Fluo-4, FDSS). To be noted: for Emax (%)*: % ACh maximum at 30 μM; for pEC50: positive allosteric modulator activity, EC20 acetylcholine response; for pEC50 / EC50: CHO-K1 cells; for EC50: positive allosteric modulator activity: concentration-dependent increase in the EC20 acetylcholine response, >10 μM estimated for low potency (no plateau). In short, it runs like this:
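CHO-K1 cells stably expressing hM4 or rM4 with chimeric Gqi5, loaded with Fluo-4 AM for 50 min at 37° C. Calcium read on FDSS 6000 over 300 s: compound added at 4 s, acetylcholine EC20 at 144 s and EC80 at 230 s. Agonist, PAM (EC20 increase) and antagonist (EC80 decrease) values fitted by four-parameter logistic.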

SMILES strings stand for the structures.

A word on the pEC50: it is the EC50 on a negative log10 scale, so that one unit is a factor of ten. For orientation: EC50 means the concentration needed to bring the measured effect to its halfway point. For `CC(=O)N1CCC(CNc2nn(C)c3c2sc2nc(C)cc(C)c23)CC1` [Compound 121, 1-(4-(((1,6,8-trimethyl-1H-pyrazolo[3′,4′:4,5]thieno[2,3-b]pyridin-3-yl)amino)methyl)piperidin-1-yl)ethanone], the “Emax (%)*” value came to 41%, the pEC50 worked out at 6.00 and the EC50 is 990 nM.

`Cc1nc2sc3c(N)nn(C)c3c2c(C)c1Cl` [Compound 23, 7-chloro-1,6,8-trimethyl-1H-pyrazolo[3′,4′:4,5]thieno[2,3-b]pyridin-3-amine]: the “Emax (%)*” value came out at 50%, the pEC50 was 6.07 and the EC50 was 850 nM.

With `Cc1ccc2c(n1)sc1c(NCc3ccco3)nn(C)c12` [Compound 52, N-(furan-2-ylmethyl)-1,6-dimethyl-1H-pyrazolo[3′,4′:4,5]thieno[2,3-b]pyridin-3-amine], the “Emax (%)*” value was 64%, the pEC50 is given as 5.82 and the EC50 is 1500 nM.

Consider `Cc1ccc2c(n1)sc1c(NC(C)C)nn(C)c12` [Compound 70, N-isopropyl-1,6-dimethyl-1H-pyrazolo[3′,4′:4,5]thieno[2,3-b]pyridin-3-amine], for which the “Emax (%)*” value was 62%, the pEC50 is <5.00 and the EC50 is > 10000 nM.

For the molecule `Cc1cc(C)c2c(n1)sc1c(NC3CCC(C(F)(F)F)CC3)n[nH]c12` (stereo not shown) [Compound 137, 6,8-dimethyl-N-(4-(trifluoromethyl)cyclohexyl)-1H-pyrazolo[3′,4′:4,5]thieno[2,3-b]pyridin-3-amine], the pEC50 is listed as <5.00 and the EC50 was > 10000 nM.

As for `Cc1cc(C)c2c(n1)sc1c(NCC3CCNCC3)nn(C)c12` [Compound 123, 1,6,8-trimethyl-N-(piperidin-4-ylmethyl)-1H-pyrazolo[3′,4′:4,5]thieno[2,3-b]pyridin-3-amine], the “Emax (%)*” value was 30%, the pEC50 is on record as <5.00 and the EC50 is > 10000 nM.

For `Cc1cc(C)c2c(n1)sc1c(NCc3cccc4c3OCO4)nn(C)c12` [Compound 84, N-(benzo[d][1,3]dioxol-4-ylmethyl)-1,6,8-trimethyl-1H-pyrazolo[3′,4′:4,5]thieno[2,3-b]pyridin-3-amine], the “Emax (%)*” value stood at 50%, the negative logarithm of the EC50 (pEC50) is listed as 6.72 and the EC50 is 190 nM.

On to `Cc1cc(C)c2c(n1)sc1c(NCc3ccsc3)nn(C)c12` [Compound 80, 1,6,8-trimethyl-N-(thiophen-3-ylmethyl)-1H-pyrazolo[3′,4′:4,5]thieno[2,3-b]pyridin-3-amine], for which the “Emax (%)*” value turned out to be 71%, the pEC50 turned out to be 7.21 and the concentration for a half-maximal effect (EC50) is 62 nM.

For the molecule `Cc1cc(C)c2c(n1)sc1c(NCC3CC3)nn(C(=O)OC(C)(C)C)c12` [Compound 8, tert-butyl 3-((cyclopropylmethyl)amino)-6,8-dimethyl-1H-pyrazolo[3′,4′:4,5]thieno[2,3-b]pyridine-1-carboxylate], the “Emax (%)*” value was found to be 61%, the pEC50 is recorded as 5.62 and the EC50 was 2410 nM.

As for `Cc1cc(C)c2c(n1)sc1c(NC3CCCCCC3)n[nH]c12` [Compound 133, N-cycloheptyl-6,8-dimethyl-1H-pyrazolo[3′,4′:4,5]thieno[2,3-b]pyridin-3-amine], the pEC50 was <5.00 and the EC50 was > 10000 nM.

For `Cc1cc(C)c2c(n1)sc1c(NCc3ccco3)n[nH]c12` [Compound 35, N-(furan-2-ylmethyl)-6,8-dimethyl-1H-pyrazolo[3′,4′:4,5]thieno[2,3-b]pyridin-3-amine], the “Emax (%)*” value worked out at 80%, the pEC50 was 5.92 and the 50% effective concentration (EC50) is 1200 nM.

As to `Cc1ccc2c(n1)sc1c(NC(=O)c3ccc(Br)cc3)nn(C)c12` [Compound 158, 4-bromo-N-(1,6-dimethyl-1H-pyrazolo[3′,4′:4,5]thieno[2,3-b]pyridin-3-yl)benzamide], the pEC50 is <5.00 and the concentration giving a half-maximal response (EC50) is > 10000 nM.

`Cc1cc(C)c2c(n1)sc1c(NCc3ccc4[nH]ccc4c3)nn(C)c12` [Compound 88, N-((1H-indo1-5-yl)methyl)-1,6,8-trimethyl-1H-pyrazolo[3′,4′:4,5]thieno[2,3-b]pyridin-3-amine]: the “Emax (%)*” value came out at 67%, the negative-log EC50 (pEC50) came to 5.89 and the EC50 was 1300 nM.

Regarding `COC(=O)Cn1nc(NCc2ccc(S(C)(=O)=O)cc2)c2sc3nc(C)cc(C)c3c21` [Compound 117, methyl 2-(6,8-dimethyl-3-((4-(methylsulfonyl)benzyl)amino)-1H-pyrazolo[3′,4′:4,5]thieno[2,3-b]pyridin-1-yl)acetate], the “Emax (%)*” value is 40%, the pEC50 is <5.00 and the EC50 was > 10000 nM.

Turning to `Cc1cc(C)c2c(n1)sc1c(N)nn(CCO)c12` [Compound 96, 2-(3-amino-6,8-dimethyl-1H-pyrazolo[3′,4′:4,5]thieno[2,3-b]pyridin-1-yl)ethanol], the “Emax (%)*” value came out at 37%, the negative-log EC50 (pEC50) is 5.27 and the EC50 was 5400 nM.

On to `Cc1cc(C)c2c(n1)sc1c(NCCC(C)(C)C)n[nH]c12` [Compound 124, N-(3,3-dimethylbutyl)-6,8-dimethyl-1H-pyrazolo[3′,4′:4,5]thieno[2,3-b]pyridin-3-amine], for which the negative logarithm of the EC50 (pEC50) is <5.00 and the concentration giving a half-maximal response (EC50) is > 10000 nM.

Regarding `Cc1ccc2c(n1)sc1c(NCCC(C)C)n[nH]c12` [Compound 156, N-isopentyl-6-methyl-1H-pyrazolo[3′,4′:4,5]thieno[2,3-b]pyridin-3-amine], the pEC50 is on record as <5.00 and the EC50 was > 10000 nM.

Turning to `Cc1cc(C)c2c(n1)sc1c(NCCC(C)C)nn(C)c12` [Compound 32, N-isopentyl-1,6,8-trimethyl-1H-pyrazolo[3′,4′:4,5]thieno[2,3-b]pyridin-3-amine], the “Emax (%)*” value turned out to be 81%, the pEC50 is on record as 6.72 and the EC50 is 190 nM.

As for `Cc1ccnc2sc3c(NCC4CC4)nn(C)c3c12` [Compound 69, N-(cyclopropylmethyl)-1,8-dimethyl-1H-pyrazolo[3′,4′:4,5]thieno[2,3-b]pyridin-3-amine], the “Emax (%)*” value amounted to 77%, the pEC50 was found to be 5.89 and the EC50 is 1300 nM.

In the case of `Cc1nc2sc3c(NCc4cccs4)n[nH]c3c2c(C)c1Cl` [Compound 21, 7-chloro-6,8-dimethyl-N-(thiophen-2-ylmethyl)-1H-pyrazolo[3′,4′:4,5]thieno[2,3-b]pyridin-3-amine], the “Emax (%)*” value was determined as 39%, the pEC50 is reported as <5.00 and the EC50 was > 10000 nM.

`Cc1cc(C)c2c(n1)sc1c(NC(=O)c3ccc(F)cc3)n[nH]c12` [Compound 128, N-(6,8-dimethyl-1H-pyrazolo[3′,4′:4,5]thieno[2,3-b]pyridin-3-yl)-4-fluorobenzamide]: the pEC50 was <5.00 and the EC50 is > 10000 nM.

With `Cc1cc(C)c2c(n1)sc1c(NCCC(C)C)n[nH]c12` [Compound 3, N-isopentyl-6,8-dimethyl-1H-pyrazolo[3′,4′:4,5]thieno[2,3-b]pyridin-3-amine], the “Emax (%)*” value came out at 46%, the pEC50 is listed as 5.91 and the EC50 is 1240 nM.

For `COc1ccc(CNc2nn(C)c3c2sc2nc(C)ccc23)cc1` [Compound 55, N-(4-methoxybenzyl)-1,6-dimethyl-1H-pyrazolo[3′,4′:4,5]thieno[2,3-b]pyridin-3-amine], the “Emax (%)*” value is recorded as 63%, the pEC50 came to 6.02 and the EC50 was 960 nM.

As to `Cc1cc(C)c2c(n1)sc1c(NC(=O)C3CCCCC3)nn(C)c12` [Compound 153, N-(1,6,8-trimethyl-1H-pyrazolo[3′,4′:4,5]thieno[2,3-b]pyridin-3-yl)cyclohexanecarboxamide], the pEC50 is <5.00 and the EC50 was > 10000 nM.

As to `Cc1cc(C)c2c(n1)sc1c(N)nn(C(=O)OC(C)(C)C)c12` [Compound 125, tert-butyl 3-amino-6,8-dimethyl-1H-pyrazolo[3′,4′:4,5]thieno[2,3-b]pyridine-1-carboxylate], the pEC50 was <5.00 and the EC50 is > 10000 nM.

With `Cc1cc(C)c2c(n1)sc1c(NCc3cc(C#N)ccc3F)nn(C)c12` [Compound 91, 4-fluoro-3-(((1,6,8-trimethyl-1H-pyrazolo[3′,4′:4,5]thieno[2,3-b]pyridin-3-yl)amino)methyl)benzonitrile], the “Emax (%)*” value came to 57%, the negative-log EC50 (pEC50) was 6.66 and the EC50 was 220 nM.

As to `COc1ccc(CNc2nn(C)c3c2sc2nc(C)cc(C)c23)cc1` [Compound 38, N-(4-methoxybenzyl)-1,6,8-trimethyl-1H-pyrazolo[3′,4′:4,5]thieno[2,3-b]pyridin-3-amine], the “Emax (%)*” value turned out to be 72%, the pEC50 was determined as 6.66 and the EC50 is 220 nM.
